Test results as given in US20200262991A1, “Method for Tuning Topology of Polymer Particles” (UNIVERSITY OF SOUTH CAROLINA, priority 2019, published 2020).

Test system: 3T3-L1 adipocytes
Experiment: Oil Red O lipid content assay in differentiated 3T3-L1 adipocytes
Type: cell-based, mouse
Conditions: 60 μM free resveratrol dissolved in ethanol, 48 hours
Experimental: 3T3-L1 fibroblasts (ATCC), were differentiated into adipocytes following ATCC's protocol, with slight modifications. Briefly, 3T3-L1 cells were seeded in 6 well plates at 80,000 cells/well and cultured in DMEM supplemented with 10% SuperCalf Serum and 1% Pen/Strep. 48 hours after confluence was reached, media was exchanged with “differentiation media” consisting of DMEM supplemented with 10% FBS, 10 μg/mL bovine insulin, 0.25 μM dexamethasone, and 0.5 mM IBMX. 48 hours after differentiation media was added, media was exchanged for DMEM supplemented with 10% FBS and 10 μg/mL bovine insulin. After another 48 hours, media was exchanged for DMEM supplemented with 10% FBS. Cells were then cultured until treatment with particles, which occurred 9 days after exposure to the differentiation media. […] Absorbance of extracted Oil Red O was measured at 500 nm using a spectrophotometer. Bioactivity of the resveratrol following the fabrication process was determined. Specifically, the ability of the resveratrol particles to induce lipolysis in differentiated 3T3-L1 adipocytes was determined by measuring lipid content with an Oil Red O assay. […] Lipid content was visualized with Oil Red O, a lipophilic dye, (FIG. 3 at A-F) and lipid content was quantified by extracting the dye (FIG. 3 at G) and measuring the solution's absorbance (FIG. 3 at H).

## Oc1ccc(/C=C/c2cc(O)cc(O)c2)cc1 [resveratrol, 3,5,4′-trihydroxy-trans-stilbene]
  Oil Red O staining (intracellular lipid content): decreased Oil Red O staining
